What was measured:
[1] = tested on: expanded HSPC / megakaryocytes; test: Platelet production from expanded HSPC cultured into megakaryocytes; format: cell-based; details: added to expanded HSPC at day 0 or day 6, cultured into megakaryocytes for 8 days
Procedure: Compound I-32 (A) and Compound I-1 (B) were added to expanded HSPC at day 0 (FIGS. 25A-25E) as they were cultured into megakaryocytes for 8 days or at day 6 (FIGS. 25F-25J). CD41a cell count (FIG. 25A), CD41aCd42b+ cell count (FIG. 25B), platelet levels (FIG. 25C), CD41a MFI (FIG. 25D) and CD41a FSC cell size (FIG. 25E) were analyzed at day 0. CD41a cell count (FIG. 25F), CD41aCd42b+ cell count (FIG. 25G), platelet levels (FIG. 25H), CD41a MFI (FIG. 25I) and CD41a FSC cell size (FIG. 25J) were analyzed at day 6.

[2] = tested on: hepatic cell death pathways (pyroptosis, necroptosis, apoptosis); test: Hepatic cell death pathways by Western blot (gasdermin D, cleaved caspase 3, cleaved RIP3); format: in vivo, mouse; details: liver samples from HFCC/CDX mice, 100 mg/kg QD oral, 2 weeks
Procedure: Compound I-1 and Compound I-32 were tested for their ability to alter hepatic cell death pathways (i.e., pyroptosis, necroptosis, and apoptosis) using liver samples from Example 7. Detection was performed on liver sections obtained from the experiment described in Example 7. Paraffin sections were deparaffinized. Western blot analysis was performed by the We-Met platform. Toulouse. France, France. Commercial primary antibodies for Gasdermin D (reference ab209845; Abcam, Cambridge, UK), cleaved caspase 3 (reference 9664, Cell Signaling Technology. Danvers, Mass.), cleaved receptor interacting protein 3 (RIP3; reference ab56164; Abcam) and actin (reference 4970; Cell Signaling Technology) for control, were used on the WES automated western blot system (Proteinsimple, San Jose, Calif.). Data are presented as mean±SEM, with n=6-10 mice per experimental group, as indicated in the legends. Two-way analysis of variance with Bonferroni post-test. Mann-Whitney U-test, or unpaired two-tailed Student's t-test were used for statistical analysis using GraphPad Prism software (GraphPad Software, La Jolla, Calif.). A P<0.05 was considered significant.

[3] = tested on: Hepa1-6 murine hepatoma cells; test: Cell proliferation assay (presto blue, 72 h); format: cell-based, mouse; details: for Hepa1-6 cell proliferation compared to control, compound alone: 100 μM; for Hepa1-6 cell proliferation compared to control, compound alone / inhibition of Hepa1-6 cell proliferation in combination with lenvatinib vs each agent alone / inhibition of Hepa 1-6 cell proliferation in combination with regorafenib vs individual effects / inhibition of Hepa1-6 cell proliferation in combination with sorafenib vs each agent alone: 72 h; for IC50: Mus musculus, Hepa1-6, 72 h, read-out: Hepa1-6 (IC50), anti-proliferation activity; for synergism with lenvatinib (CI), Hepa1-6 cells: all tested concentrations: 1 μM and 0.3 μM to 100 μM and 30 μM; for inhibition of Hepa1-6 cell proliferation in combination with lenvatinib vs each agent alone: compound 100 μM + lenvatinib 30 μM; for inhibition of Hepa 1-6 cell proliferation in combination with regorafenib vs individual effects: compound 100 μM + regorafenib 5 μM; for inhibition of Hepa1-6 cell proliferation in combination with sorafenib vs each agent alone: compound 100 μM + sorafenib 5 μM
Procedure: Cell cultures. Hep3B (ATCC) and Hepa1-6 (ATCC) cells were seeded in 96-well plates at a density of 3000 cells/well with complete media. On day 2, media in each well was aspirated and replaced with 100 μl of fresh complete media and cells were treated with or without Compound I-1, Compound I-32, Compound I1-84, and Compound I-85, in a concentration dependent manner. Then, cells were incubated in an incubator for 72 h. On day 5, 10 μl of presto blue (Invitrogen, cat #A13261) cell viability reagent was added in each 96-well plate and incubated at 37° C. for 1-2 h. After incubation, fluorescence was measured with an excitation/emission wavelength of 560/590 nm.
Proliferation assay. Hep3B (ATCC) and Hepa1-6 (ATCC) cells were seeded in 96-well plates at a density of 3000 cells/well with complete media. On day 2, media in each well was aspirated and replaced with 100 μl of fresh complete media and cells were treated with/without testing compounds in a concentration dependent manner. Then, cells were incubated in an incubator for 72 h. On day 5, 10 μl of presto blue (Invitrogen, cat #A13261) cell viability reagent was added in each 96-well plate and incubated at 37° C. for 1-2 h. After incubation, fluorescence was measured with an excitation/emission wavelength of 560/590 nm. Anti-proliferative combination effects of Compound I-1 or Compound I-32 and regorafenib were determined in Hep3B and Hepa1-6 cells. Drug combination interaction was determined by the Chou-Talalay method (23), which is based on well-known equations for different reaction sequences and mechanisms, and different types of inhibition. These equations provide the theoretical basis for the combination index (CI)-isobologram equation that allows quantitative determination of drug interactions, where CI<1, =1, and >1 indicate synergism, additive effect, and antagonism, respectively. CI is calculated based on in vitro measurements implemented in the Compusyn software (www.combosyn.com), a platform for drug combinations pharmacodynamics with automated simulations. The software calculates CI based on the Fractional Inhibition (Fa), which is the potency expressed by the average effect values for each drug concentrations as determined by in vitro experiments. The dose-effect data entries are utilized for automated computerized analysis by the Compusyn software.
Data entered was obtained by in vitro experiments performed as follows: Hep3B or Hepa 1-6 cells were plated in a 96-well format and cell proliferation rates were determined as described above. Cells were treated with 5 doses of each test agent alone at the following concentrations: compounds of the invention dosed at 1, 5, 10, 50, or 100 μM for both Hep3B and Hepa1-6 cells, regorafenib dosed at 0.015, 0.075, 0.15, 0.75, and 1.5 μM for Hep3B cells or 0.05, 0.25, 0.5, 2.5, 5 μM for Hepa 1-6 cells. […]. Data are shown as Fa-CI plots where CI is the combination index and Fa is fractional inhibition. Results were indicated as mean±standard deviation (SD). All bar diagrams and line graphs were prepared using Graph Pad Prism 8 software. Drug synergy was calculated using the CompuSyn software.
Methods: Hep3B cells (supplied by ATCC) and Hepa1-6 cells (supplied by ATCC) were seeded in 96-well plates at a density of 3000 cells/well with complete media. On day 2, the media in each well was aspirated and replaced with 100 μL of fresh complete media, and the cells were treated in a concentration dependent manner with either Compound I-1, Compound I-32, Compound I-84, Compound I-85, sorafenib, lenvatinib, Compound I-1 in combination with sorafenib. Compound I-1 in combination with lenvatinib, Compound I-32 in combination with sorafenib, or Compound I-32 in combination with lenvatinib. The cells were then incubated in an incubator at 37° C. for 72 h. On day 5, 10 μL of presto blue (Invitrogen, cat #A13261) cell viability reagent was added to each 96-well plate and incubated at 37° C. for 1-2 h. […]

SMILES | platelet production [1] | hepatic cell death pathways (pyroptosis, apoptosis, necroptosis) by Western blot [2] | Hepa1-6 cell proliferation compared to control, compound alone [3] | IC50 [3] [µM] | synergism with sorafenib (CI), Hepa1-6 cells ([3]; all tested concentrations: 1 μM and 0.05 μM to 100 μM and 5 μM) | synergism with lenvatinib (CI), Hepa1-6 cells [3] | inhibition of Hepa1-6 cell proliferation in combination with lenvatinib vs each agent alone [3] | inhibition of Hepa 1-6 cell proliferation in combination with regorafenib vs individual effects [3] | inhibition of Hepa1-6 cell proliferation in combination with sorafenib vs each agent alone [3] | synergism with sorafenib (CI), Hepa1-6 cells ([3]; compound and sorafenib: 1 μM and 0.05 μM, 10 μM and 0.25 μM, 50 μM and 2.5 μM, 100 μM and 5 μM)
CC(C)(CCCCc1ccc(CCCCC(C)(C)C(=O)O)cc1)C(=O)O [Compound I-1, 6-[4-(5-carboxy-5-methylhexyl)-phenyl]-2,2-dimethylhexanoic acid] | do not significantly affect | significantly repressed pyroptosis and apoptosis cell death pathways with a trend towards necroptosis | inhibited Hepa1-6 cell proliferation compared to control | > 100 | synergism | synergism | significantly greater inhibition of Hepa1-6 cell proliferation | greater inhibition of cell proliferation compared to their individual effects | significantly greater inhibition of Hepa1-6 cell proliferation | –
CC(C)(CCCCc1cccc(CCCCC(C)(C)C(=O)O)c1)C(=O)O [Compound I-32, 6-[3-(5-carboxy-5-methylhexyl)-phenyl]-2,2-dimethylhexanoic acid] | do not significantly affect | significantly repressed pyroptosis and apoptosis cell death pathways with a trend towards necroptosis | inhibited Hepa1-6 cell proliferation compared to control | > 100 | – | synergism | significantly greater inhibition of Hepa1-6 cell proliferation | greater inhibition of cell proliferation compared to their individual effects | significantly greater inhibition of Hepa1-6 cell proliferation | significant synergism
